The values below come from PMC5218480 (PLoS ONE, 2017).

In this assay the test system is MV-4-11 cells. Nature of the assay: Gene expression microarray analysis (Affymetrix PrimeView) and GSEA. It is filed as cell-based, human. Further details: RFU PODN (11730768_x_at) / Fold change /veh PODN (11730768_x_at) / RFU LINC00158 (11744669_a_at) / Fold change /veh LINC00158 (11744669_a_at) / RFU DUSP10 (11751237_a_at) / Fold change /veh DUSP10 (11751237_a_at) / RFU ID3 (11757404_x_at) / Fold change /veh ID3 (11757404_x_at) / RFU PLEKHG5 (11737974_s_at) / Fold change /veh PLEKHG5 (11737974_s_at) / RFU LRRC4B (11730491_at) / Fold change /veh LRRC4B (11730491_at) / RFU GIMAP4 (11747438_a_at) / Fold change /veh GIMAP4 (11747438_a_at) / RFU KRT8 (11758183_x_at) / Fold change /veh KRT8 (11758183_x_at) / RFU CNN1 (11734310_a_at) / Fold change /veh CNN1 (11734310_a_at) / RFU VPS37D (11726825_at) / Fold change /veh VPS37D (11726825_at) / RFU C10orf10 (11716522_x_at) / Fold change /veh C10orf10 (11716522_x_at) / RFU KIR2DL2 /// KIR2DL4 /// KIR2DL5A /// KIR2DL5B /// KIR2DS1 /// KIR2DS2 /// KIR2DS3 /// KIR2DS4 /// KIR3DL3 /// KIR3DL3 /// KIR3DS1 (11738374_at) / Fold change /veh KIR2DL2 /// KIR2DL4 /// KIR2DL5A /// KIR2DL5B /// KIR2DS1 /// KIR2DS2 /// KIR2DS3 /// KIR2DS4 /// KIR3DL3 /// KIR3DL3 /// KIR3DS1 (11738374_at) / RFU C1QL1 (11718748_at) / Fold change /veh C1QL1 (11718748_at) / RFU TMPRSS4 (11747572_a_at) / Fold change /veh TMPRSS4 (11747572_a_at) / RFU HAMP (11756126_x_at) / Fold change /veh HAMP (11756126_x_at) / RFU RNFT2 (11725882_a_at) / Fold change /veh RNFT2 (11725882_a_at) / RFU NR4A2 (11747474_a_at) / Fold change /veh NR4A2 (11747474_a_at) / RFU ABCC12 (11746883_a_at) / Fold change /veh ABCC12 (11746883_a_at) / RFU TMEM136 (11760407_x_at) / Fold change /veh TMEM136 (11760407_x_at) / RFU CLDN22 /// WWC2 (11732394_at) / Fold change /veh CLDN22 /// WWC2 (11732394_at) / RFU HLA-DPB1 (11760878_x_at) / Fold change /veh HLA-DPB1 (11760878_x_at) / RFU SPINT1 (11716480_a_at) / Fold change /veh SPINT1 (11716480_a_at) / RFU GAP43 (11754022_s_at) / Fold change /veh GAP43 (11754022_s_at) / RFU A4GNT (11735810_at) / Fold change /veh A4GNT (11735810_at) / RFU PRB3 (11715151_x_at) / Fold change /veh PRB3 (11715151_x_at) / RFU TUBB4B (11761932_at) / Fold change /veh TUBB4B (11761932_at) / RFU CAPN14 (11732068_a_at) / Fold change /veh CAPN14 (11732068_a_at) / RFU TMCC2 (11721928_a_at) / Fold change /veh TMCC2 (11721928_a_at) / RFU IRGQ (11745062_a_at) / Fold change /veh IRGQ (11745062_a_at) / RFU FAM174B (11720279_a_at) / Fold change /veh FAM174B (11720279_a_at) / RFU TMPRSS4 (11748680_a_at) / Fold change /veh TMPRSS4 (11748680_a_at) / RFU FAM212B (11763350_a_at) / Fold change /veh FAM212B (11763350_a_at) / RFU PLEKHG5 (11743358_a_at) / Fold change /veh PLEKHG5 (11743358_a_at) / RFU ZSCAN30 (11745921_a_at) / Fold change /veh ZSCAN30 (11745921_a_at) / RFU CMKLR1 (11741424_a_at) / Fold change /veh CMKLR1 (11741424_a_at) / RFU LOC101060620 /// MAPK8IP1 (11723275_at) / Fold change /veh LOC101060620 /// MAPK8IP1 (11723275_at) / RFU SPTSSB (11747773_x_at) / Fold change /veh SPTSSB (11747773_x_at) / RFU PRSS12 (11739890_at) / Fold change /veh PRSS12 (11739890_at) / RFU BIN1 (11741810_x_at) / Fold change /veh BIN1 (11741810_x_at) / RFU WNT11 (11732464_a_at) / Fold change /veh WNT11 (11732464_a_at) / RFU C10orf10 (11716521_a_at) / Fold change /veh C10orf10 (11716521_a_at) / RFU C5orf56 (11738089_at) / Fold change /veh C5orf56 (11738089_at) / RFU CYB561 (11721691_x_at) / Fold change /veh CYB561 (11721691_x_at) / RFU ANKRD19P (11752326_a_at) / Fold change /veh ANKRD19P (11752326_a_at) / RFU OR2T12 /// OR2T33 /// OR2T8 (11738714_s_at) / Fold change /veh OR2T12 /// OR2T33 /// OR2T8 (11738714_s_at) / RFU VCAN (11748164_a_at) / Fold change /veh VCAN (11748164_a_at) / RFU JSRP1 (11732532_at) / Fold change /veh JSRP1 (11732532_at) / RFU KRTAP10-11 (11738290_x_at) / Fold change /veh KRTAP10-11 (11738290_x_at) / RFU MYO3A (11730013_a_at) / Fold change /veh MYO3A (11730013_a_at) / RFU EBF3 (11725865_a_at) / Fold change /veh EBF3 (11725865_a_at) / RFU CAMK2N1 (11719241_x_at) / Fold change /veh CAMK2N1 (11719241_x_at) / RFU C5orf56 (11738088_a_at) / Fold change /veh C5orf56 (11738088_a_at) / RFU OLFML3 (11715873_a_at) / Fold change /veh OLFML3 (11715873_a_at) / RFU LOC100653217 /// NTM (11731650_a_at) / Fold change /veh LOC100653217 /// NTM (11731650_a_at) / RFU MAPK11 (11762145_a_at) / Fold change /veh MAPK11 (11762145_a_at) / RFU FIZ1 (11724087_x_at) / Fold change /veh FIZ1 (11724087_x_at) / RFU OASL (11726364_x_at) / Fold change /veh OASL (11726364_x_at) / RFU SOX15 (11748057_x_at) / Fold change /veh SOX15 (11748057_x_at) / RFU CD79A (11719716_a_at) / Fold change /veh CD79A (11719716_a_at) / RFU HIST1H1D (11736915_at) / Fold change /veh HIST1H1D (11736915_at) / RFU CASKIN2 (11723855_a_at) / Fold change /veh CASKIN2 (11723855_a_at) / RFU LOC730098 (11760151_x_at) / Fold change /veh LOC730098 (11760151_x_at) / RFU OR4N2 (11742367_at) / Fold change /veh OR4N2 (11742367_at) / RFU PRRT2 (11749266_a_at) / Fold change /veh PRRT2 (11749266_a_at) / RFU SNX32 (11753110_a_at) / Fold change /veh SNX32 (11753110_a_at) / RFU CDHR5 (11726645_a_at) / Fold change /veh CDHR5 (11726645_a_at) / RFU RCAN1 (11760418_a_at) / Fold change /veh RCAN1 (11760418_a_at) / RFU FAM167A (11723789_a_at) / Fold change /veh FAM167A (11723789_a_at) / RFU FAM26E (11764081_at) / Fold change /veh FAM26E (11764081_at) / RFU ISYNA1 (11749810_s_at) / Fold change /veh ISYNA1 (11749810_s_at) / RFU ACY1 (11761880_at) / Fold change /veh ACY1 (11761880_at) / RFU 11764098_at / Fold change /veh 11764098_at / RFU SAMD14 (11745864_x_at) / Fold change /veh SAMD14 (11745864_x_at) / RFU NPB (11741838_a_at) / Fold change /veh NPB (11741838_a_at) / RFU TMPRSS6 (11731388_a_at) / Fold change /veh TMPRSS6 (11731388_a_at) / RFU KRTAP10-2 (11738614_at) / Fold change /veh KRTAP10-2 (11738614_at) / RFU ARHGAP8 /// PRR5-ARHGAP8 (11727945_x_at) / Fold change /veh ARHGAP8 /// PRR5-ARHGAP8 (11727945_x_at) / RFU KRTAP5-7 /// NADSYN1 (11734609_at) / Fold change /veh KRTAP5-7 /// NADSYN1 (11734609_at) / RFU RASL12 (11751679_a_at) / Fold change /veh RASL12 (11751679_a_at) / RFU CDKN2B (11736163_a_at) / Fold change /veh CDKN2B (11736163_a_at) / RFU PRF1 (11729649_at) / Fold change /veh PRF1 (11729649_at) / RFU, ZNF638 /// ZNF638-IT1 / Fold change vs veh, ZNF638 /// ZNF638-IT1 / RFU, PANK3 / Fold change vs veh, PANK3 / RFU, SH3YL1 / Fold change vs veh, SH3YL1 / RFU, ZEB2 / Fold change vs veh, ZEB2 / RFU, NRIP1 / Fold change vs veh, NRIP1 / RFU, PTTG1IP / Fold change vs veh, PTTG1IP / RFU, CAPN2 / Fold change vs veh, CAPN2 / RFU, MED14 / Fold change vs veh, MED14 / RFU, SNORA58 / Fold change vs veh, SNORA58 / RFU, C1orf63 / Fold change vs veh, C1orf63 / RFU, LRRFIP1 / Fold change vs veh, LRRFIP1 / RFU, NDUFAF7 / Fold change vs veh, NDUFAF7 / RFU, SLC12A2 / Fold change vs veh, SLC12A2 / RFU, IBTK / Fold change vs veh, IBTK / RFU, ESF1 / Fold change vs veh, ESF1 / Fold change vs veh, TMEM50B / RFU, TAOK1 / Fold change vs veh, TAOK1 / RFU, ACBD3 / Fold change vs veh, ACBD3 / RFU, TMA16 / Fold change vs veh, TMA16 / RFU, RWDD3 / Fold change vs veh, RWDD3 / RFU, BCAT1 / Fold change vs veh, BCAT1 / RFU, EDEM3 / Fold change vs veh, EDEM3 / RFU, TMEM33 / Fold change vs veh, TMEM33 / RFU, WDR75 / Fold change vs veh, WDR75 / RFU, AHCTF1 / Fold change vs veh, AHCTF1 / RFU, TFRC / Fold change vs veh, TFRC / RFU, ZDHHC17 / Fold change vs veh, ZDHHC17 / RFU, NOM1 / Fold change vs veh, NOM1 / RFU, ARL8B / Fold change vs veh, ARL8B / RFU, ZBTB11 / Fold change vs veh, ZBTB11 / RFU, TAMM41 / Fold change vs veh, TAMM41 / RFU, KIAA1704 /// LOC100996395 / Fold change vs veh, KIAA1704 /// LOC100996395 / RFU, ING1 / Fold change vs veh, ING1 / RFU, TRMT61B / Fold change vs veh, TRMT61B / RFU, FUBP3 / Fold change vs veh, FUBP3 / RFU, TP53 / Fold change vs veh, TP53 / RFU, TNKS2 / Fold change vs veh, TNKS2 / RFU, ZFP14 / Fold change vs veh, ZFP14 / RFU, ACTR2 / Fold change vs veh, ACTR2 / RFU, PPP3R1 / Fold change vs veh, PPP3R1 / RFU, PIK3R1 / Fold change vs veh, PIK3R1 / RFU, HNRNPA1 / Fold change vs veh, HNRNPA1 / RFU, RNF170 / Fold change vs veh, RNF170 / RFU, ZNF28 / Fold change vs veh, ZNF28 / RFU, RNGTT / Fold change vs veh, RNGTT / RFU, OGT / Fold change vs veh, OGT / RFU, BRD1 / Fold change vs veh, BRD1 / RFU, MARS / Fold change vs veh, MARS / RFU, ZNF655 / Fold change vs veh, ZNF655 / RFU, FAHD1 / Fold change vs veh, FAHD1 / RFU, BDP1 / Fold change vs veh, BDP1 / RFU, LRRCC1 / Fold change vs veh, LRRCC1 / RFU, ARID1A / Fold change vs veh, ARID1A / RFU, ZNF146 / Fold change vs veh, ZNF146 / RFU, ZNF330 / Fold change vs veh, ZNF330 / RFU, GPN3 / Fold change vs veh, GPN3 / RFU, C9orf123 / Fold change vs veh, C9orf123 / RFU, N4BP2L2 / Fold change vs veh, N4BP2L2 / RFU, ARFIP1 / Fold change vs veh, ARFIP1 / RFU, FAM179B / Fold change vs veh, FAM179B / RFU, BCL10 / Fold change vs veh, BCL10 / RFU, UHRF1BP1L / Fold change vs veh, UHRF1BP1L / RFU, BET1 / Fold change vs veh, BET1 / RFU, CNOT2 / Fold change vs veh, CNOT2 / RFU, ZNF268 / Fold change vs veh, ZNF268 / Fold change vs veh, ZNF507 / RFU, DGCR2 / Fold change vs veh, DGCR2 / RFU, WDSUB1 / Fold change vs veh, WDSUB1 / Fold change vs veh, HSP90B1 /// MIR3652 / RFU, ADSS / Fold change vs veh, ADSS / RFU, GK / Fold change vs veh, GK / RFU, ZNF148 / Fold change vs veh, ZNF148 / RFU, TAF9 / Fold change vs veh, TAF9 / RFU, SLC1A5 / Fold change vs veh, SLC1A5 / RFU, SLMO2 / Fold change vs veh, SLMO2 / RFU, ABCC4 / Fold change vs veh, ABCC4 / RFU, LOC101060439 /// RAP1B / Fold change vs veh, LOC101060439 /// RAP1B / RFU, RFX7 / Fold change vs veh, RFX7 / RFU, GTPBP10 / Fold change vs veh, GTPBP10 / RFU, CNEP1R1 / Fold change vs veh, CNEP1R1 / RFU, BIVM-ERCC5 /// ERCC5 / Fold change vs veh, BIVM-ERCC5 /// ERCC5 / RFU, ILF3 / Fold change vs veh, ILF3 / RFU 11762660_at / Fold change /veh 11762660_at / RFU VCAN (11757783_s_at) / Fold change /veh VCAN (11757783_s_at) / RFU DDX43 (11728927_at) / Fold change /veh DDX43 (11728927_at) / RFU KRT8 (11758188_x_at) / Fold change /veh KRT8 (11758188_x_at) / RFU NKD1 (11759106_at) / Fold change /veh NKD1 (11759106_at) / RFU SRD5A1 (11742802_a_at) / Fold change /veh SRD5A1 (11742802_a_at) / RFU TPSAB1 /// TPSB2 (11721975_s_at) / Fold change /veh TPSAB1 /// TPSB2 (11721975_s_at) / RFU GSTM3 (11746129_a_at) / Fold change /veh GSTM3 (11746129_a_at) / RFU IL23R (11737362_x_at) / Fold change /veh IL23R (11737362_x_at) / RFU TMEM51 (11727254_a_at) / Fold change /veh TMEM51 (11727254_a_at) / RFU PIWIL2 (11732686_x_at) / Fold change /veh PIWIL2 (11732686_x_at) / RFU ORM1 (11744905_x_at) / Fold change /veh ORM1 (11744905_x_at) / RFU CCDC152 (11743942_at) / Fold change /veh CCDC152 (11743942_at) / RFU ECM1 (11717891_a_at) / Fold change /veh ECM1 (11717891_a_at) / RFU IL23R (11748794_a_at) / Fold change /veh IL23R (11748794_a_at) / RFU TNFAIP8L3 (11732012_x_at) / Fold change /veh TNFAIP8L3 (11732012_x_at) / RFU MBOAT4 (11741988_at) / Fold change /veh MBOAT4 (11741988_at) / RFU 11764193_at / Fold change /veh 11764193_at / RFU TMEM53 (11763286_at) / Fold change /veh TMEM53 (11763286_at) / RFU MAGEB2 (11727129_at) / Fold change /veh MAGEB2 (11727129_at) / RFU TMEM200A (11744735_a_at) / Fold change /veh TMEM200A (11744735_a_at) / RFU CCDC152 (11751479_a_at) / Fold change /veh CCDC152 (11751479_a_at) / RFU FAM211A (11726209_a_at) / Fold change /veh FAM211A (11726209_a_at) / RFU RGS16 (11746705_a_at) / Fold change /veh RGS16 (11746705_a_at) / RFU VCAN (11755009_s_at) / Fold change /veh VCAN (11755009_s_at) / RFU RHOB (11743442_s_at) / Fold change /veh RHOB (11743442_s_at) / RFU RGS16 (11720943_a_at) / Fold change /veh RGS16 (11720943_a_at) / RFU RGS16 (11720944_at) / Fold change /veh RGS16 (11720944_at) / RFU, VPS4B / Fold change vs veh, VPS4B / RFU, CREB1 / Fold change vs veh, CREB1 / RFU, DNAJC13 / Fold change vs veh, DNAJC13 / RFU, GNAQ / Fold change vs veh, GNAQ / RFU, CDK5R1 / Fold change vs veh, CDK5R1 / RFU, ZRANB3 / Fold change vs veh, ZRANB3 / RFU, CUL4A / Fold change vs veh, CUL4A / RFU, CCNY / Fold change vs veh, CCNY / RFU, UFL1 / Fold change vs veh, UFL1 / RFU, COG3 / Fold change vs veh, COG3 / RFU, DIAPH2 / Fold change vs veh, DIAPH2 / RFU, SKA2 / Fold change vs veh, SKA2 / RFU, AFF3 / Fold change vs veh, AFF3 / RFU, LMF1 / Fold change vs veh, LMF1 / RFU, IPO11 / Fold change vs veh, IPO11 / RFU, DFFB / Fold change vs veh, DFFB / RFU, FOXP1 / Fold change vs veh, FOXP1 / RFU, CARD8 / Fold change vs veh, CARD8 / RFU, STRN3 / Fold change vs veh, STRN3 / RFU, ADK / Fold change vs veh, ADK / RFU, RASSF2 / Fold change vs veh, RASSF2 / RFU, WIPF1 / Fold change vs veh, WIPF1 / RFU, LARP1B / Fold change vs veh, LARP1B / RFU, RASA1 / Fold change vs veh, RASA1 / RFU, RB1 / Fold change vs veh, RB1 / RFU, PPFIA1 / Fold change vs veh, PPFIA1 / RFU, MAT2A / Fold change vs veh, MAT2A / RFU, CCT5 / Fold change vs veh, CCT5 / RFU, WDR92 / Fold change vs veh, WDR92 / RFU, CUX1 / Fold change vs veh, CUX1 / RFU, TTC7A / Fold change vs veh, TTC7A / RFU, TMEM135 / Fold change vs veh, TMEM135 / RFU, DEPTOR / Fold change vs veh, DEPTOR / RFU, CPM / Fold change vs veh, CPM / RFU, DNAJB6 / Fold change vs veh, DNAJB6 / RFU, CACNA2D3 / Fold change vs veh, CACNA2D3 / RFU, DTX4 / Fold change vs veh, DTX4 / RFU, TFCP2 / Fold change vs veh, TFCP2 / RFU, GMCL1 /// GMCL1P1 / Fold change vs veh, GMCL1 /// GMCL1P1 / RFU, AEBP2 / Fold change vs veh, AEBP2 / RFU, SNHG1 /// SNORD22 /// SNORD25 /// SNORD26 /// SNORD27 /// SNORD28 /// SNORD29 /// SNORD31 / Fold change vs veh, SNHG1 /// SNORD22 /// SNORD25 /// SNORD26 /// SNORD27 /// SNORD28 /// SNORD29 /// SNORD31 / Fold change (Aza/veh), C12orf56 (ProbeSet 11735607_a_at) / Fold change (ACY-1035/veh), C12orf56 (ProbeSet 11735607_a_at) / Fold change (Aza/veh), FGFR1OP (ProbeSet 11751329_s_at) / Fold change (ACY-1035/veh), FGFR1OP (ProbeSet 11751329_s_at) / Fold change (Aza/veh), VPS36 (ProbeSet 11739960_a_at) / Fold change (ACY-1035/veh), VPS36 (ProbeSet 11739960_a_at) / RFU SYPL1 (11715823_x_at) / Fold change /veh SYPL1 (11715823_x_at) / RFU IGFBP7 (11715501_s_at) / Fold change /veh IGFBP7 (11715501_s_at) / RFU REEP3 (11722064_at) / Fold change /veh REEP3 (11722064_at) / RFU IGLL1 (11728026_x_at) / Fold change /veh IGLL1 (11728026_x_at): dose or concentration left out as unconfirmed. To be noted: ProbeSet 11756954_s_at; LIST B.

On to `Nc1ccc(-c2cccs2)cc1NC(=O)c1ccc2c(c1)cc(C1CC1)n2CCN1CCOCC1` [ACY-1035], for which the “Fold change vs veh, ZEB2” value worked out at 0.85.
